Experimental data as given in patent publication US12139499B2, “Heteroaryl compounds for treating Huntington's disease” (PTC THERAPEUTICS, INC., priority 2018, dated 2024).
pIC50: −log10 of the molar value.

System: Endogenous Huntingtin Protein
Test: Endogenous Huntingtin Protein Assay (ELISA-based MSD electrochemiluminescence)
Format: cell-based
Conditions: Table 1
Summary of the method: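 Sandwich MSD electrochemiluminescence immunoassay. Capture used MW1 (expanded polyglutamine) or MAB2166 antibody coated at 1 μg/mL overnight at 4 °C. Samples were bound overnight at 4 °C, then a rabbit monoclonal detection antibody and SULFO-TAG anti-rabbit, each at 0.25 μg/mL, were applied for 1 h at room temperature.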

CN(c1nc2nnc(-c3ccc(-c4cn[nH]c4)cc3O)cc2s1)C1CCN(C2CC2)CC1 [Compound 383, 2-{6-[(1-cyclopropylpiperidin-4-yl)(methyl)amino][1,3]thiazolo[4,5-c]pyridazin-3-yl}-5-(1H-pyrazol-4-yl)phenol]
pIC50: ≥ 7.00

Cc1cn2cc(-c3cc4sc(NC5CC(C)(C)NC(C)(C)C5)nc4cn3)cc(C#N)c2n1 [Compound 222, 2-methyl-6-{2-[(2,2,6,6-tetramethylpiperidin-4-yl)amino][1,3]thiazolo[4,5-c]pyridin-6-yl]imidazo[1,2-a]pyridine-8-carbonitrile]
pIC50: ≥ 7.00

Cc1cn2cc(-c3cnc4nc(OC5CC(C)(C)NC(C)(C)C5)sc4n3)cc(F)c2n1 [Compound 180, 6-(8-fluoro-2-methylimidazo[1,2-a]pyridin-6-yl)-2-[(2,2,6,6-tetramethylpiperidin-4-yl)oxy][1,3]thiazolo[4,5-b]pyrazine]
pIC50: 6.30 to 7.00

Cc1cn2nc(-c3cc(F)c4nc(OC5CCNCC5)sc4c3)cc(C)c2n1 [Compound 306, 6-{4-fluoro-2-[(piperidin-4-yl)oxy]-1,3-benzothiazol-6-yl}-2,8-dimethylimidazo[1,2-b]pyridazine]
pIC50: ≥ 7.00

CCN(c1nc2cnc(-c3cc(C#N)c4nc(C)cn4c3)nc2s1)C1CC(C)(C)NC(C)(C)C1 [Compound 242, 6-{2-[ethyl(2,2,6,6-tetramethylpiperidin-4-yl)amino][1,3]thiazolo[5,4-d]pyrimidin-5-yl)-2-methylimidazo[1,2-a]pyridine-8-carbonitrile]
pIC50: 6.30 to 7.00

Cc1cn2cc(-c3ncc4nc(N(C)C5CC6(C)CC[C@](C)(C5)N6)sc4n3)cc(C#N)c2n1 (stereo partly drawn) [Compound 255, 6-(2-{[(1R)-1,5-dimethyl-8-azabicyclo[3.2.1]oct-3-yl](methyl)amino}[1,3]thiazolo[5,4-d]pyrimidin-5-yl)-2-methylimidazo[1,2-a]pyridine-8-carbonitrile]
pIC50: ≥ 7.00

Cc1cc(-c2nc3ccc(C4=CCNCC4)cc3s2)cc2cn(C)nc12 [Compound 49, 2-(2,7-dimethyl-2H-indazol-5-yl)-6-(1,2,3,6-tetrahydropyridin-4-yl)-1,3-benzothiazole]
pIC50: 6.30 to 7.00

C[C@H]1C[C@@H](N(C)c2nc3nnc(-c4ccc(-c5cn[nH]c5)cc4O)cc3s2)CCN1 [Compound 394, 2-(6-{methyl[(2S,4S)-2-methylpiperidin-4-yl]amino}[1,3]thiazolo[4,5-c]pyridazin-3-yl)-5-(1H-pyrazol-4-yl)phenol]
pIC50: ≥ 7.00

CN1CCC(c2nc3ccc(-c4ccc5nn(C)cc5c4)cc3s2)CC1 [Compound 9, 6-(2-methyl-2H-indazol-5-yl)-2-(1-methylpiperidin-4-yl)-1,3-benzothiazole]
pIC50: 5.52 to 6.00

Oc1cc(-c2c[nH]nc2F)ccc1-c1cc2sc(N3CC4(CNC4)C3)nc2nn1 [Compound 368, 2-[6-(2,6-diazaspiro[3.3]heptan-2-yl)[1,3]thiazolo[4,5-c]pyridazin-3-yl]-5-(3-fluoro-1H-pyrazol-4-yl)phenol]
pIC50: 6.30 to 7.00

COc1cc(-c2cc(F)c3nc(C4=CCNCC4)sc3c2)nn2cc(C)nc12 [Compound 145, 6-[4-fluoro-2-(1,2,3,6-tetrahydropyridin-4-yl)-1,3-benzothiazol-6-yl]-8-methoxy-2-methylimidazo[1,2-b]pyridazine]
pIC50: ≥ 7.00

CN(c1nc2c(F)cc(-c3ccc4nn(C)cc4n3)cc2s1)C1CC2CCC(C1)N2 (stereo not drawn) [Compound 237, N-[(3-exo)-8-azabicyclo[3.2.1]oct-3-yl]-4-fluoro-N-methyl-6-(2-methyl-2H-pyrazolo[4,3-b]pyridin-5-yl)-1,3-benzothiazol-2-amine]
pIC50: 6.30 to 7.00

Cc1cn2cc(-c3ccc4nc(N(C)C5CC(C)(C)NC(C)(C)C5)sc4n3)cc(C#N)c2n1 [Compound 178, 2-methyl-6-{2-[methyl(2,2,6,6-tetramethylpiperidin-4-yl)amino][1,3]thiazolo[5,4-b]pyridin-5-yl}imidazo[1,2-a]pyridine-8-carbonitrile]
pIC50: ≥ 7.00

Cc1cc(-c2ccc3nc(OC4CC(C)(C)NC(C)(C)C4)sc3c2)cc2cn(C)nc12 [Compound 68, 6-(2,7-dimethyl-2H-indazol-5-yl)-2-[(2,2,6,6-tetramethylpiperidin-4-yl)oxy]-1,3-benzothiazole]
pIC50: 5.52 to 6.00

Cc1cn2nc(-c3cc(F)c4nc(N5CCC(O)CC5)sc4c3)cc(C)c2n1 [Compound 143, 1-[6-(2,8-dimethylimidazo[1,2-b]pyridazin-6-yl)-4-fluoro-1,3-benzothiazol-2-yl]piperidin-4-ol]
pIC50: 6.30 to 7.00

Cc1cn2cc(-c3cc(F)c4nc(C5=CCNCC5)sc4c3)cc(C)c2n1 [Compound 71, 6-(2,8-dimethylimidazo[1,2-a]pyridin-6-yl)-4-fluoro-2-(1,2,3,6-tetrahydropyridin-4-yl)-1,3-benzothiazole]
pIC50: 6.30 to 7.00

Cc1cn2nc(-c3cc(F)c4nc(C5CCNCC5)sc4c3)cc(C(=O)O)c2n1 [Compound 219, 6-[4-fluoro-2-(piperidin-4-yl)-1,3-benzothiazol-6-yl]-2-methylimidazo[1,2-b]pyridazine-8-carboxylic acid]
pIC50: 5.52 to 6.00

Cc1cc(-c2cc(O)c3nc(C4=CCNCC4)sc3c2)cc2cn(C)nc12 [Compound 100, 6-(2,7-dimethyl-2H-indazol-5-yl)-2-(1,2,3,6-tetrahydropyridin-4-yl)-1,3-benzothiazol-4-ol]
pIC50: 6.00 to 6.30

Cc1cc(-c2ccc3nc(N(C)C4CC(C)(C)NC(C)(C)C4)sc3c2)cc2cn(C)nc12 [Compound 21, 6-(2,7-dimethyl-2H-indazol-5-yl)-N-methyl-N-(2,2,6,6-tetramethylpiperidin-4-yl)-1,3-benzothiazol-2-amine]
pIC50: 6.30 to 7.00

Cn1cc2cc(-c3cc(Cl)c4nc(C5=CCNCC5)sc4c3)cc(C#N)c2n1 [Compound 154, 5-[4-chloro-2-(1,2,3,6-tetrahydropyridin-4-yl)-1,3-benzothiazol-6-yl]-2-methyl-2H-indazole-7-carbonitrile]
pIC50: 5.52 to 6.00

Cn1cc2cc(-c3cc4sc(OC5CCNCC5)nc4cn3)cc(F)c2n1 [Compound 316, 6-(7-fluoro-2-methyl-2H-indazol-5-yl)-2-[(piperidin-4-yl)oxy][1,3]thiazolo[4,5-c]pyridine]
pIC50: 6.30 to 7.00

Cn1cc2nc(-c3cc(F)c4nc(C5CCNCC5)sc4c3)ccc2n1 [Compound 79, 5-[4-fluoro-2-(piperidin-4-yl)-1,3-benzothiazol-6-yl]-2-methyl-2H-pyrazolo[4,3-b]pyridine]
pIC50: ≥ 7.00

Cc1cn2cc(-c3ccc4nc(N(C)C5CC(C)(C)NC(C)(C)C5)sc4c3)cc(C(F)(F)F)c2n1 [Compound 96, N-methyl-6-[2-methyl-8-(trifluoromethyl)imidazo[1,2-a]pyridin-6-yl]-N-(2,2,6,6-tetramethylpiperidin-4-yl)-1,3-benzothiazol-2-amine]
pIC50: 6.30 to 7.00

CN1CCC(c2ccc3nc(-c4ccc5nn(C)cc5c4)sc3c2)CC1 [Compound 10, 2-(2-methyl-2H-indazol-5-yl)-6-(1-methylpiperidin-4-yl)-1,3-benzothiazole]
pIC50: 5.52 to 6.00

CCc1cc(-c2ccc3nc(N(C)C4CC(C)(C)NC(C)(C)C4)sc3c2)cn2cc(C)nc12 [Compound 93, 6-(8-ethyl-2-methylimidazo[1,2-a]pyridin-6-yl)-N-methyl-N-(2,2,6,6-tetramethylpiperidin-4-yl)-1,3-benzothiazol-2-amine]
pIC50: 6.30 to 7.00

Cc1cn2nc(-c3cc(F)c4nc(N(C)C5CCN[C@@H](C)C5)sc4c3)ccc2n1 (stereo partly drawn) [Compound 164, 4-fluoro-N-methyl-6-(2-methylimidazo[1,2-b]pyridazin-6-yl)-N-[(2S)-2-methylpiperidin-4-yl]-1,3-benzothiazol-2-amine]
pIC50: ≥ 7.00

CN(c1nc2cnc(-c3ccc4nn(C)cc4c3)cc2s1)C1CCNCC1 [Compound 27, N-methyl-6-(2-methyl-2H-indazol-5-yl)-N-(piperidin-4-yl)[1,3]thiazolo[4,5-c]pyridin-2-amine]
pIC50: 6.00 to 6.30

Cc1cn2cc(-c3cc4sc(N(C)C5CC6(C)CCC(C)(C5)N6)nc4cn3)cc(C)c2n1 [Compound 299, N-[(1R,3s,5S)-1,5-dimethyl-8-azabicyclo[3.2.1]octan-3-yl]-6-(2,8-dimethylimidazo[1,2-a]pyridin-6-yl)-N-methyl[1,3]thiazolo[4,5-c]pyridin-2-amine]
pIC50: ≥ 7.00

Cc1cn2nc(-c3cc(F)c4nc(C56CCN(CC5)CC6)sc4c3)cc(C)c2n1 [Compound 194, 6-[2-(1-azabicyclo[2.2.2]oct-4-yl)-4-fluoro-1,3-benzothiazol-6-yl]-2,8-dimethylimidazo[1,2-b]pyridazine]
pIC50: ≥ 7.00

CN(c1nc2nnc(-c3ccc(-c4cn[nH]c4)cc3O)cc2s1)C1CCN(CCF)CC1 [Compound 384, 2-(6-{[1-(2-fluoroethyl)piperidin-4-yl](methyl)amino}[1,3]thiazolo[4,5-c]pyridazin-3-yl)-5-(1H-pyrazol-4-yl)phenol]
pIC50: ≥ 7.00

CCc1cc(-c2ccc3nc(C4CCNCC4)sc3c2)cc2cn(C)nc12 [Compound 85, 6-(7-ethyl-2-methyl-2H-indazol-5-yl)-2-(piperidin-4-yl)-1,3-benzothiazole]
pIC50: 6.30 to 7.00

Cc1nc2ccc(-c3cc(F)c4nc(C5CCNCC5)sc4c3)cc2o1 [Compound 70, 6-[4-fluoro-2-(piperidin-4-yl)-1,3-benzothiazol-6-yl]-2-methyl-1,3-benzoxazole]
pIC50: ≥ 7.00

Cc1cc(-c2ccc3nc(C4CCNCC4)sc3c2)cc2cn(C)nc12 [Compound 22, 6-(2,7-dimethyl-2H-indazol-5-yl)-2-(piperidin-4-yl)-1,3-benzothiazole]
pIC50: ≥ 7.00

CN(c1nc2ccc(-c3cc(C4CC4)c4nn(C)cc4c3)cc2s1)C1CC(C)(C)NC(C)(C)C1 [Compound 80, 6-(7-cyclopropyl-2-methyl-2H-indazol-5-yl)-N-methyl-N-(2,2,6,6-tetramethylpiperidin-4-yl)-1,3-benzothiazol-2-amine]
pIC50: 5.52 to 6.00

Cc1cn2cc(-c3cc4sc(N(C)C5CC6(C)CCC(C)(C5)N6)nc4cn3)cc(F)c2n1 [Compound 286, N-[(1R,3s,5S)-1,5-dimethyl-8-azabicyclo[3.2.1]octan-3-yl]-6-(8-fluoro-2-methylimidazo[1,2-a]pyridin-6-yl)-N-methyl[1,3]thiazolo[4,5-c]pyridin-2-amine]
pIC50: ≥ 7.00
